Measurements as given in publication PMC7217877, “N-AS-triggered SPMs are direct regulators of microglia in a model of Alzheimer’s disease” (Nature Communications, 2020).
Where “and” joins values, the source holds several entries; their conditions need not be identical. Equal entries are not always repeated.

Legend:
COX2 = molecular target: T1, COX2 (Homo sapiens, UniProt P35354); assay: S565 acetylation of recombinant COX2 (ac-S565 western blot, LC-MS/MS of acetylated site); type: biochemical; design: purchased LSBio LS-G21094; settings: 2 mM; vs naive and aspirin-treated COX2
T1 sequence (P35354 18-604): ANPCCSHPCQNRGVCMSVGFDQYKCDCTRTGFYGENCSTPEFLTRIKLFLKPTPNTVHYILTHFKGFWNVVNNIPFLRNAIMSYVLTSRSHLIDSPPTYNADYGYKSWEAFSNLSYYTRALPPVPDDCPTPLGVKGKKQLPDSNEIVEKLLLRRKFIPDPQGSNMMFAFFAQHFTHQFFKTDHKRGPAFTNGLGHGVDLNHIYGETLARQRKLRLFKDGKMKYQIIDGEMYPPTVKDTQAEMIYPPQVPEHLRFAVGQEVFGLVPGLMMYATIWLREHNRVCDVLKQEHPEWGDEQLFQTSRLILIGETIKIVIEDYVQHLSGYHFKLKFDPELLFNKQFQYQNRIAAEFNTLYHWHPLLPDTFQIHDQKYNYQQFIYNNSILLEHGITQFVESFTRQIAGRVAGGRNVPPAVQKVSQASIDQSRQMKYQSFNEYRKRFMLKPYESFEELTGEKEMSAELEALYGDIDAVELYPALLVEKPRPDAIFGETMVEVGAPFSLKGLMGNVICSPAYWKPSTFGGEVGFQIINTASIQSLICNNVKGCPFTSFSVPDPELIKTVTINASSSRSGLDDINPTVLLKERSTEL
Protocol: To identify the acetylation site of COX2, N-AS (Sigma-Aldrich, 01912)-treated COX2 enzymes (LSBio, LS-G21094) were immediately precipitated with trichroloacetic acid (Merck) and dried. The dried extract was resuspended in 10 μl of 5 M Urea solution and incubated with 1 μg sequencing-grade modified porcine trypsin (Promega) in 0.1 M ammonium bicarbonate buffer at 37 °C for 16 h. The sample was then treated with 1 M DTT (GE Healthcare) at RT for 1 h, followed by alkylation with 1 M iodoacetamide (Sigma-Aldrich) for 1 h. For sequencing, the protein samples were loaded onto a ZORBAX 300SB-C18 column (3.5 μm, 1.0 mm i.d. × 150 mm, Agilent). The column was placed in-line with an UltiMate 3000 system (Dionex, USA) and a splitter system was used to achieve a flow rate of 100 μl min^−1. Analytes were eluted with a mobile phase consisting of water: formic acid (100:0.2 v/v) (phase A) and acetonitrile: formic acid (100:0.2 v/v) (phase B) in gradient elution mode for 77 min. […]
Samples were lysed in RIPA buffer (Cell signaling Technologies), then subjected to SDS-PAGE and transferred to a nitrocellulose membrane. […] We performed densitometric quantification using the ImageJ software (National Institutes of Health). […]

APP/PS1 mice [1] = assay: Imaris-based morphology of microglia (Supplementary Fig 5b; Additional Fig 2); type: in vivo, mouse
Protocol: (§1) Thioflavin S (Sigma-Aldrich) staining was carried out according to previously described procedures. We used 6E10 (mouse, 1:100, Signet, SIG39300), anti-20G10 (mouse, 1:1000, provided by D. R. Howlett, GlaxoSmithKline, Harlow, Essex, UK) for Aβ42, anti-G30 (rabbit, 1:1000, provided by D. R. Howlett) for Aβ40, SMA (mouse, 1:400, Sigma-Aldrich, A2547), AT8 (mouse, 1:500, Thermo Fisher Scientific, MN1020), Caspase-3 (mouse, 1:200, Novus Biologicals, NB100-56708), ac-S565 (rabbit, 1:100), COX2 (mouse, 1:250, Thermo Fisher Scientific, 35-8200), Iba1 (rabbit, 1:500, Wako, 019-19941 and goat, Abcam, ab5076), NeuN (mouse, 1:500, Millipore, MAB177), GFAP (rabbit, 1:500, Dako, N1506 and chicken, 1:500, Abcam, ab4674), and Lamp1 (mouse, 1:200, Abcam, ab24170). The sections were analyzed with a laser-scanning confocal microscope (FV3000; Olympus) or with a BX51 microscope (Olympus). MetaMorph software (Molecular Devices) was used to quantification. Three-dimensional reconstruction of microglia was recorded and analyzed using IMARIS software (Bitplane)[11]. For the analysis of age-dependent microglial COX2^+ CX3CR1^+ cells in WT and APP/PS1 mice, COX2 (rabbit, 1:100, Abcam, ab15191) and CX3CR1 (mouse, 1:100, BioLegend, 149008) antibody were used and the images were acquired on Alexa 488 and APC Channel with performed using Operetta CLS and Analysis Software 4.5 (Perkin-Elmer). […]

APP/PS1 mice [2] = assay: cerebral amyloid angiopathy (CAA) quantification (Fig 6f); type: in vivo, mouse; settings: Cortex; APP/PS1 + N-AS; individual values
Protocol: as §1

CCCCCCCCCCCCC/C=C/[C@@H](O)[C@H](CO)NC(C)=O [N-AS, N-((2S,3R,E)-1,3-Dihydroxyoctadec-4-en-2-yl)acetamide]
ac-S565 signal in western blot of recombinant COX2 (COX2): strong ac-S565-positive signals | morphology of non-plaque-associated microglia (APP/PS1 mice [1]; APP/PS1 vs N-AS-treated APP/PS1, Additional Fig. 2 of peer review file): did not differ between the groups | morphology of microglia surrounding Aβ (APP/PS1 mice [1]; N-AS vs vehicle APP/PS1): phagocytic morphology (ameboid microglial morphology) was more evident | amyloid angiopathy (CAA) quantification (APP/PS1 mice [2]): 0.11 and 0.15 and 0.12 and 0.1 and 0.17 and 0.13
